# Measured values taken from ChEMBL document CHEMBL5365497, “Developing Novel Coumarin-Containing Azoles Antifungal Agents by the Scaffold Merging Strategy for Treating Azole-Resistant Candidiasis” (J Med Chem, 2023).
# pIC50: −log10 of the molar value. Activity calls are given as the source filed them. The rule behind the calls is not given here.
# How the values were obtained:
# Candida albicans [1] = test: Antibiofilm activity against fluconazole-resistant Candida albicans 904 incubated for 24 hrs by XTT reduction assay; format: functional, organism-based; conditions: dose <= 128.0 µg/ml
# Candida albicans [2] = test: Antifungal activity against fluconazole-resistant Candida albicans CaR assessed as fungal growth inhibition by CLSI based microdilution method; format: functional
# Candida albicans [3] = test: Antifungal activity against fluconazole-resistant Candida albicans 904 assessed as inhibition of yeast to hypha morphological transition at 16 ug/ml incubated for 4 hrs by inverted microscopy; format: functional, organism-based; conditions: dose 16.0 µg/ml
# Candida parapsilosis = test: Antifungal activity against Candida parapsilosis assessed as fungal growth inhibition by CLSI based microdilution method; format: functional; conditions: Lodderomyces parapsilosis
# [4] = biological target: T1, Lanosterol 14-alpha demethylase (Candida albicans (strain SC5314 / ATCC MYA-2876) (Yeast), UniProt P10613); test: Inhibition of CYP51 in Candida albicans SC5314 assessed as increase in obtusifoliol level at 0.03125 ug/ml incubated for 24 hrs by GC-MS analysis; conditions: at 0.03125 µg/mL
# Candida tropicalis = test: Antifungal activity against Candida tropicalis assessed as fungal growth inhibition by CLSI based microdilution method; format: functional
# Pichia kudriavzevii = test: Antifungal activity against Pichia kudriavzevii assessed as fungal growth inhibition by CLSI based microdilution method; format: functional
# Candida albicans [5] = test: Antifungal activity against fluconazole-resistant Candida albicans 904 assessed as fungal growth inhibition by CLSI based microdilution method; format: functional
# Candida albicans [6] = test: Antifungal activity against Candida albicans CPCC400616 assessed as fungal growth inhibition by CLSI based microdilution method; format: functional
# Candida albicans [7] = test: Antifungal activity against fluconazole-resistant Candida albicans 901 assessed as fungal growth inhibition by CLSI based microdilution method; format: functional
# Candida albicans [8] = test: Antifungal activity against fluconazole-resistant Candida albicans 904 assessed as reduction in CPH1 expression at 16 ug/ml incubated for 12 hrs by RT-PCR analysis; format: functional, organism-based; conditions: dose 16.0 µg/ml
# Candida albicans [9] = test: Antifungal activity against Candida albicans SC5314 assessed as fungal growth inhibition by CLSI based microdilution method; format: functional
# Candida albicans [10] = test: Antifungal activity against Candida albicans CPCC400616 assessed as reduction in TEC1 expression at 2 ug/ml incubated for 12 hrs by RT-PCR analysis; format: functional, organism-based; conditions: dose 2.0 µg/ml
# Candida albicans [11] = test: Antifungal activity against fluconazole-resistant Candida albicans 904 assessed as decrease in ERG11 expression at 16 ug/ml measured after 16 hrs by RT-PCR analysis; format: functional, organism-based; conditions: dose 16.0 µg/ml
# Candida albicans [12] = test: Antifungal activity against Candida albicans CPCC400616 assessed as reduction in EFG1 expression at 2 ug/ml incubated for 12 hrs by RT-PCR analysis; format: functional, organism-based; conditions: dose 2.0 µg/ml
# Candida albicans [13] = test: Antifungal activity against fluconazole-resistant Candida albicans 904 assessed as reduction in ALS3 expression at 16 ug/ml incubated for 12 hrs by RT-PCR analysis; format: functional, organism-based; conditions: dose 16.0 µg/ml
# Candida albicans [14] = test: Antifungal activity against Candida albicans CPCC400616 assessed as reduction in CPH1 expression at 2 ug/ml incubated for 12 hrs by RT-PCR analysis; format: functional, organism-based; conditions: dose 2.0 µg/ml
# Nakaseomyces glabratus = test: Antifungal activity against Candida glabrata assessed as fungal growth inhibition by CLSI based microdilution method; format: functional
# [15] = Metabolic stability in mouse liver microsomes assessed as half life incubated for 5 to 60 mins by LC-MS/MS analysis; format: ADME, Microsome; conditions: time 5-60 min
# Candida albicans [16] = test: Antifungal activity against fluconazole-resistant Candida albicans 904 assessed as decrease in MDR1 expression at 16 ug/ml measured after 16 hrs by RT-PCR analysis; format: functional, organism-based; conditions: dose 16.0 µg/ml
# Candida albicans [17] = test: Antifungal activity against fluconazole-resistant Candida albicans 904 assessed as reduction in EFG1 expression at 16 ug/ml incubated for 12 hrs by RT-PCR analysis; format: functional, organism-based; conditions: dose 16.0 µg/ml
# [18] = Stability in mouse plasma assessed as compound remaining at 1 uM measured for 180 mins by LC-MS/MS analysis; format: ADME, cell-free; conditions: read-out: Stability
# [19] = biological target: T1, Lanosterol 14-alpha demethylase; test: Inhibition of CYP51 in Candida albicans SC5314 assessed as increase in eburicol level at 0.03125 ug/ml incubated for 24 hrs by GC-MS analysis; conditions: at 0.03125 µg/mL
# Candida albicans [20] = test: Antibiofilm activity against Candida albicans CPCC400616 incubated for 24 hrs by XTT reduction assay; format: functional, organism-based; conditions: dose <= 128.0 µg/ml
# [21] = Cytotoxicity against human MRC5 cells assessed as cell growth inhibition by MTT assay; format: toxicity, cell-based
# [22] = biological target: T1, Lanosterol 14-alpha demethylase; test: Inhibition of CYP51 in Candida albicans SC5314 assessed as increase in lanosterol level at 0.03125 ug/ml incubated for 24 hrs by GC-MS analysis; conditions: at 0.03125 µg/mL
# Candida albicans [23] = test: Antifungal activity against Candida albicans CPCC400616 assessed as reduction in ALS3 expression at 2 ug/ml incubated for 12 hrs by RT-PCR analysis; format: functional, organism-based; conditions: dose 2.0 µg/ml
# [24] = Stability in mouse plasma assessed as half life at 1 uM measured for 180 mins by LC-MS/MS analysis; format: ADME, cell-free
# Candida albicans [25] = test: Antifungal activity against Candida albicans CPCC400616 assessed as inhibition of yeast to hypha morphological transition at 2 ug/ml incubated for 4 hrs by inverted microscopy; format: functional, organism-based; conditions: dose 2.0 µg/ml
# Candida albicans [26] = test: Antifungal activity against fluconazole-resistant Candida albicans 17# assessed as fungal growth inhibition by CLSI based microdilution method; format: functional
# [27] = Cytotoxicity against mouse J774.A1 cells assessed as cell growth inhibition by MTT assay; format: toxicity, cell-based
# Candida albicans [28] = test: Antifungal activity against fluconazole-resistant Candida albicans 904 assessed as decrease in CDR1 expression at 16 ug/ml measured after 16 hrs by RT-PCR analysis; format: functional, organism-based; conditions: dose 16.0 µg/ml
# Candida albicans [29] = test: Antifungal activity against fluconazole-resistant Candida albicans 904 assessed as decrease in CDR2 expression at 16 ug/ml measured after 16 hrs by RT-PCR analysis; format: functional, organism-based; conditions: dose 16.0 µg/ml
# Candida albicans [30] = test: Antifungal activity against fluconazole-resistant Candida albicans 632 assessed as fungal growth inhibition by CLSI based microdilution method; format: functional
# Cryptococcus neoformans = test: Antifungal activity against Cryptococcus neoformans assessed as fungal growth inhibition by CLSI based microdilution method; format: functional
# Candida albicans [31] = test: Induction of ROS production in fluconazole-resistant Candida albicans 904 at 64 ug/ml incubated for 30 mins by fluorescence microscopy; format: functional, organism-based; conditions: dose 64.0 µg/ml
# Candida albicans [32] = test: Antifungal activity against fluconazole-resistant Candida albicans 904 assessed as reduction in TEC1 expression at 16 ug/ml incubated for 12 hrs by RT-PCR analysis; format: functional, organism-based; conditions: dose 16.0 µg/ml
# [33] = biological target: T1, Lanosterol 14-alpha demethylase; test: Inhibition of CYP51 in Candida albicans SC5314 assessed as ergosterol level at 0.03125 ug/ml incubated for 24 hrs by GC-MS analysis (reference value: 97.58 %); design: scale not given: the % may be the effect or the level left; conditions: at 0.03125 µg/mL
# Candida albicans [34] = test: Antifungal activity against Candida albicans SC5314 assessed as destruction of cell membrane at 16 ug/ml incubated for 24 hrs by TEM analysis; format: functional, organism-based; conditions: dose 16.0 µg/ml
# Candida albicans [35] = test: Antifungal activity against fluconazole-resistant Candida albicans 904 assessed as fungal growth inhibition measured for 48 hrs by CLSI based microdilution method; format: functional
# Candida albicans [36] = test: Antifungal activity against Candida albicans SC5314 assessed as destruction of cell wall at 16 ug/ml incubated for 24 hrs by TEM analysis; format: functional, organism-based; conditions: dose 16.0 µg/ml
# Candida albicans [37] = test: Antifungal activity against Candida albicans SC5314 assessed as fragmented nuclei at 16 ug/ml incubated for 24 hrs by TEM analysis; format: functional, organism-based; conditions: dose 16.0 µg/ml
# T1 sequence (P10613 whole entry): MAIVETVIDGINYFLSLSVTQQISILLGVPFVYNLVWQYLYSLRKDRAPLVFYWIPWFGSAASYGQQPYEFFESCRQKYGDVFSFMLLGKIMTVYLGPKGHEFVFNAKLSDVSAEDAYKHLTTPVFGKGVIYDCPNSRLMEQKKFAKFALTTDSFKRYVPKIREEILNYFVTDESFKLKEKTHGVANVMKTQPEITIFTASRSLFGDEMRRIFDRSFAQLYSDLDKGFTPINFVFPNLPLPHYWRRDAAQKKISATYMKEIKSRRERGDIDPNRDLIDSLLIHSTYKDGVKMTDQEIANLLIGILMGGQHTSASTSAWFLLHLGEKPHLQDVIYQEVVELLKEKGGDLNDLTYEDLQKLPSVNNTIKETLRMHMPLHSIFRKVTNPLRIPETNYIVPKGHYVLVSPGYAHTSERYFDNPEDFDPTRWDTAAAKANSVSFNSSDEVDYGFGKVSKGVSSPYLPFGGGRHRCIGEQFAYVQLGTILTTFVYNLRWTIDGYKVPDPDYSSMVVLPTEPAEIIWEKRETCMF
smiles,measurement,setting,value
O=c1ccc2cc(COC(Cn3ccnc3)c3ccc(Cl)cc3Cl)ccc2o1 (centres undefined),Activity,Candida albicans [1],Dose-Dependent Effect
same,MIC,Candida albicans [2],0.5 µg/mL
same,inhibition,Candida albicans [3],Active
same,MIC,Candida parapsilosis,< 0.25 µg/mL
same,inhibition (INH),[4],Active
same,MIC,Candida tropicalis,< 0.25 µg/mL
same,MIC,Pichia kudriavzevii,0.5 µg/mL
same,MIC,Candida albicans [5],8 µg/mL
same,MIC,Candida albicans [6],0.06 µg/mL
same,MIC,Candida albicans [7],32 µg/mL
same,Activity,Candida albicans [8],Active
same,MIC,Candida albicans [9],0.03 µg/mL
same,Activity,Candida albicans [10],Active
same,Activity,Candida albicans [11],Active
same,Activity,Candida albicans [12],Active
same,Activity,Candida albicans [13],Active
same,Activity,Candida albicans [14],Active
same,MIC,Nakaseomyces glabratus,0.25 µg/mL
same,half-life,[15],6.09 min
same,Activity,Candida albicans [16],Active
same,Activity,Candida albicans [17],Active
same,"remaining at 3 h, 1 µM",[18],98.7%
same,inhibition (INH),[19],Active
same,Activity,Candida albicans [20],Dose-Dependent Effect
same,pIC50,[21],4.11
same,inhibition (INH),[22],Active
same,Activity,Candida albicans [23],Active
same,half-life at 1 µM,[24],> 360 min
same,inhibition,Candida albicans [25],Active
same,MIC,Candida albicans [26],1 µg/mL
same,pIC50,[27],4.61
same,Activity,Candida albicans [28],Active
same,Activity,Candida albicans [29],Active
same,MIC,Candida albicans [30],16 µg/mL
same,MIC,Cryptococcus neoformans,4 µg/mL
same,Activity,Candida albicans [31],Active
same,Activity,Candida albicans [32],Active
same,Activity,[33],0.99%
OC(Cn1cncn1)(Cn1cncn1)c1ccc(F)cc1F [FLUCONAZOLE],MIC,Candida albicans [2],> 128 µg/mL
same,MIC,Candida parapsilosis,4 µg/mL
same,MIC,Candida tropicalis,2 µg/mL
same,Activity,Candida albicans [34],Active
same,MIC,Pichia kudriavzevii,32 µg/mL
same,MFC,Candida albicans [35],> 128 µg/mL
same,MIC,Candida albicans [5],> 128 µg/mL
same,MIC,Candida albicans [6],4 µg/mL
same,MIC,Candida albicans [7],> 128 µg/mL
same,MIC,Candida albicans [9],0.5 µg/mL
same,MIC,Nakaseomyces glabratus,32 µg/mL
same,MIC,Candida albicans [26],> 128 µg/mL
same,MIC,Candida albicans [30],> 128 µg/mL
same,MIC,Cryptococcus neoformans,4 µg/mL
same,Activity,Candida albicans [36],inactive
same,Activity,Candida albicans [37],Active
